US20200163984A1, “USE OF ISOVALERYL SPIRAMYCIN I, II AND/OR III IN MANUFACTURING MEDICAMENT FOR TREATING AND/OR PREVENTING TUMOR, AND MEDICAMENT” (SHENYANG FUYANG PHARMACEUTICAL TECHNOLOGY CO., LTD., priority 2017, published 2020)

Assays:
[1] = tested on: spleen lymphocytes (ConA, LPS stimulation); experiment: Spleen lymphocyte proliferation activity of Lewis lung cancer tumor-bearing mice; type: in vivo, C57BL/6 mouse; conditions: for B Lymphocyte Proliferation Activity (%) / T Lymphocyte Proliferation Activity (%): n = 6
Experimental: In the Lewis lung cancer model, the mice inoculated with the tumor were randomly divided into groups with 10 mice in each group the next day of inoculation. The groups included: a model control group, a positive drug cyclophosphamide control group (CTX, 30 mg/kg), isovaleryl spiramycin I groups with doses of 13, 26 and 52 mg/kg; isovaleryl spiramycin II groups with doses of 13, 26 and 52 mg/kg; isovaleryl spiramycin III groups with doses of 13, 26 and 52 mg/kg. Each group was continuously administered intragastrically for 15 days with a dose of 20 ml/kg.
The serum-free RPMI 1640 medium was placed in a dish, and then the dish was placed on ice. The spleen was aseptically taken and gently ground with a sterile glass slide to prepare a single cell suspension. The single cell suspension was filtered with a double-layer sterile gauze, washed twice with serum-free RPMI1640 medium, and centrifuged at 1,500 rpm for 5 min to remove the obtained supernatant. 2 mL of red blood cell lysate was added to the treated suspension, the mixture was allowed to stand for 2 min, and then 8 mL of RPMI 1640 medium was added, centrifuging was performed at 1,500 rpm for 5 min to remove the obtained supernatant, and then washing was performed twice with the RPMI 1640 medium. […] A single cell suspension was prepared by using a RPMI 1640 medium containing 10% fetal bovine serum.
The spleen cell suspension was taken, and the cell density was adjusted to 1×10^7/mL. Each mouse was set with: A. a control well: 100 μL of RPMI 1640 medium was added; B. a concanavalin A (ConA) stimulation well: 100 μL (10 mg/L) of concanavalin A (ConA) solution was added; and C. a bacterial endotoxin (LPS) stimulating well: 100 μL (20 mg/L) of bacterial endotoxin (LPS) solution was added. The above cells were added to a 96-well plate, and then 100 μL of spleen cell suspension was added to each of the above wells. After the culture plate was transferred to a saturated humidity condition with a volume fraction of 5% CO2 at 37° C. for incubation for 72 h, 10 μL of MTT solution (5 g/L) was added to each well, and incubation was continued to be performed for 4 hours under the same conditions, then the culture was terminated. 100 μl of a triple solution (SDS 10 g, 10M HCl 0.1 mL, […] 5 mL, diluted with distilled water to 100 mL) was added, and the plate was shaken for 10 min to fully dissolve the crystals. The Optical Density (OD) of each well was measured at 570 nm, and the lymphocyte proliferation rate was calculated. Lymphocyte proliferation rate (%)=[(T-C)/C]×100%, wherein T was the Optical Density of the stimulation well, and C is the Optical Density of the control well.

[2] = tested on: transplanted tumor of human prostate cancer cell PC3; experiment: PC3 transplanted tumor in nude mice
Experimental: (§1) Then cell concentration was adjusted to 1×10^7/ml with matrigel, then each nude mouse was inoculated subcutaneously with 0.2 ml of cells at its right armpit and recorded as the first day of inoculation. When the tumor grows to be greater than or equal to 100 mm^3, the mice were randomly divided into 11 groups with 6 mice in each group: a model group, a cyclophosphamide group, isovaleryl spiramycin I groups with doses of 25, 50 and 100 mg/kg, isovaleryl spiramycin II groups with doses of 25, 50 and 100 mg/kg, and isovaleryl spiramycin III groups with doses of 25, 50 and 100 mg/kg. Each group was continuously administered intragastrically for 30 days with a dose of 20 ml/kg. The mice were sacrificed the next day after drug withdrawal and the indicators were tested. The long diameter and short diameter of the tumor, and the body weight of each mouse were recorded every 3 days from drug administration to nude mouse sacrifice.
(§2) The body weight of the nude mice and the long diameter (a) and short diameter (b) of the transplanted tumor were measured every 3 days, and the tumor volume (v), relative tumor volume (RTV) and relative tumor proliferation rate (T/C) are calculated respectively according to the following formulas, wherein V=a×b^2/2; RTV=V/V0 (V0 is the tumor volume before administration, V is the tumor volume before sacrifice), and T/C (%)=treatment group RTV/model control group RTV×100%.
(§3) Each mouse was weighed and sacrificed. After the tumor was completely stripped off from the body of the mouse, the non-tumor tissues such as blood stains and fat were removed to weigh the tumor and calculate the tumor growth inhibition rate. The average tumor weight of each group of mice is used as an indicator of efficacy. Tumor growth inhibition rate (%)=(1−the average tumor weight of the treatment group/the average tumor weight of the model group)×100%.

[3] = tested on: transplanted tumor of human large cell lung cancer H460 cells; experiment: H460 transplanted tumor in nude mice
Experimental: as §1, with “group:” for “group: a model group, a cyclophosphamide group,”
as §2, §3

[4] = PC3, 25 mg/kg (low dose) i.g. 30 days
[5] = PC3, 50 mg/kg (medium dose) i.g. 30 days
[6] = PC3, 100 mg/kg (high dose) i.g. 30 days
[7] = H460, 25 mg/kg (low dose) i.g. 30 days
[8] = H460, 50 mg/kg (medium dose) i.g. 30 days
[9] = H460, 100 mg/kg (high dose) i.g. 30 days

With CCC(=O)O[C@@H]1CC(=O)O[C@H](C)C/C=C/C=C/[C@H](O[C@H]2CC[C@H](N(C)C)[C@@H](C)O2)[C@H](C)C[C@H](CC=O)[C@H](O[C@@H]2O[C@H](C)[C@@H](O[C@H]3C[C@@](C)(O)[C@@H](OC(=O)CC(C)C)[C@H](C)O3)[C@H](N(C)C)[C@H]2O)[C@H]1OC [Isovaleryl spiramycin III, isovaleryl spiramycin III] the “lymphocyte activity compared with the control group” value ([1]; Lewis tumor-bearing mice, 13, 26 and 52 mg/kg, P<0.05, P<0.01) was “significantly increase”, the “B Lymphocyte Proliferation Activity (%)” value ([1]; dose 13 mg/kg) was 33.91 ± 2.65% and the “T Lymphocyte Proliferation Activity (%)” value ([1]; dose 13 mg/kg) was 20.17 ± 5.18%. For the same compound, the “B Lymphocyte Proliferation Activity (%)” value ([1]; dose 26 mg/kg) was 34.69 ± 0.34%, the “T Lymphocyte Proliferation Activity (%)” value ([1]; dose 26 mg/kg) was 18.51 ± 2.60% and the “B Lymphocyte Proliferation Activity (%)” value ([1]; dose 52 mg/kg) was 32.28 ± 1.27%. For the same compound, the “T Lymphocyte Proliferation Activity (%)” value ([1]; dose 52 mg/kg) was 18.25 ± 1.89%, the “Inhibition Rate (tumor growth inhibition rate)” value (shortened to “Inhibition Rate”) [2, 4] was 25.43% and the “Relative Tumor Proliferation Rate (T/C)” value [2, 4] was 75.75%. For the same compound, the “Relative Tumor Volume (RTV)” value [2, 4] was 14.82 ± 7.55, the “Tumor Volume (d 1)” value [2, 4] was 146.91 ± 6.70 mm3 and the “Tumor Volume (d 30)” value [2, 4] was 1914.85 ± 729.54 mm3. The “Tumor Weight” value [2, 4] was 1.40 ± 0.54 g, the “Inhibition Rate” value ([2]; PC3, 25 mg/kg (low dose) i.g. 30 days, listed as isovaleryl spiramycin III) was 25.44% and the “Inhibition Rate” value [2, 5] was 40.16%. The “Relative Tumor Proliferation Rate (T/C)” value [2, 5] was 55.01%, the “Relative Tumor Volume (RTV)” value [2, 5] was 10.76 ± 2.24 and the “Tumor Volume (d 1)” value [2, 5] was 187.01 ± 50.28 mm3. For the same compound, the “Tumor Volume (d 30)” value [2, 5] was 1935.79 ± 228.06 mm3, the “Tumor Weight” value [2, 5] was 1.12 ± 0.45 g and the “Relative Tumor Proliferation Rate (T/C)” value ([2]; PC3, 50 mg/kg (medium dose) i.g. 30 days, listed as isovaleryl spiramycin III) was 55.02%. The “Inhibition Rate” value [2, 6] was 60.37%, the “Relative Tumor Proliferation Rate (T/C)” value [2, 6] was 34.57% and the “Relative Tumor Volume (RTV)” value [2, 6] was 6.76 ± 1.61. For the same compound, the “Tumor Volume (d 1)” value [2, 6] was 155.11 ± 7.98 mm3, the “Tumor Volume (d 30)” value [2, 6] was 1051.03 ± 272.23 mm3 and the “Tumor Weight” value [2, 6] was 0.75 ± 0.25 g. The “tumor volume and relative tumor volume compared with the model group” value ([2]; PC3, low, medium and high doses, P<0.05) was “significantly lower”, the “mouse weight compared with the model group” value ([2]; mouse, in vivo) was “no significant changes” and the “Inhibition Rate” value [3, 7] was 17.41%. For the same compound, the “Relative Tumor Proliferation Rate (T/C)” value [3, 7] was 63.03%, the “Relative Tumor Volume (RTV)” value [3, 7] was 6.62 ± 2.34 and the “Tumor Volume (d 1)” value [3, 7] was 140.44 ± 14.04 mm3. For the same compound, the “Tumor Volume (d 30)” value [3, 7] was 914.05 ± 279.14 mm3, the “Tumor Weight” value [3, 7] was 1.42 ± 0.26 g and the “Inhibition Rate” value [3, 8] was 23.31%. The “Relative Tumor Proliferation Rate (T/C)” value [3, 8] was 42.54%, the “Relative Tumor Volume (RTV)” value [3, 8] was 4.47 ± 0.94 and the “Tumor Volume (d 1)” value [3, 8] was 148.59 ± 14.47 mm3. The “Tumor Volume (d 30)” value [3, 8] was 666.74 ± 160.61 mm3, the “Tumor Weight” value [3, 8] was 1.32 ± 0.25 g and the “Inhibition Rate” value [3, 9] was 63.93%. The “Relative Tumor Proliferation Rate (T/C)” value [3, 9] was 35.95%, the “Relative Tumor Volume (RTV)” value [3, 9] was 3.78 ± 0.84 and the “Tumor Volume (d 1)” value [3, 9] was 143.19 ± 17.40 mm3. For the same compound, the “Tumor Volume (d 30)” value [3, 9] was 531.56 ± 78.33 mm3, the “Tumor Weight” value [3, 9] was 0.62 ± 0.26 g and the “tumor volume and relative tumor volume compared with the model group” value ([3]; H460, low, medium and high doses, P<0.05) was “significantly lower”. The “mouse weight compared with the model group” value ([3]; mouse, in vivo) was “no significant changes”.
